Series [1] in a line: Highest frequency of moderate liver toxicity observed during clinical trials, expressed as a percentage. [column '% BIOL' in source]. To be noted: human.
Series [2] can be described thus: Highest frequency of acute liver toxicity observed during clinical trials, expressed as a percentage. [column '% AIGUE' in source]. As to conditions: human.
For series [3] the following is noted: human, serum.
The conditions of series [4]: human, serum. This is another data set of the same source.
For series [5] the following is noted: human.
The conditions of series [6]: human. This is another data set of the same source.
The conditions of series [7]: human. The source holds these as a separate data set.
The conditions of series [8]: human, serum, 4383 h.
For series [9] the following is noted: human. The source holds these as a separate data set.
For series [10] the following is noted: human. The source holds these as a separate data set.
For series [11] the following is noted: human. This is another data set of the same source.
The conditions of series [12]: human. The source holds these as a separate data set.
The conditions of series [13]: human. This is another data set of the same source.
The conditions of series [14]: human. This is another data set of the same source.
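For Hepatotoxicity (association with vascular disease) in this document: count of indexed literature references reporting vascular liver injury in humans, e.g. peliosis hepatitis, hepatic veno-occlusive disease or Budd-Chiari syndrome.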
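For Hepatotoxicity (benign tumour) in this document: value is a count of indexed literature references citing a benign tumour confirmed by histopathology.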
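For Hepatotoxicity (choleostasis) in this document: human cholestatic liver injury, shown by histopathology or by peak ALT or AST elevation over alkaline phosphatase ratio below 2, value counts indexed literature reports.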
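For Hepatotoxicity (chronic liver disease) in this document: chronic liver injury confirmed by histopathology or persistently raised serum aminotransferase activity beyond 6 months, value given as the count of indexed literature references.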
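For Hepatotoxicity (cirrhosis) in this document: value is a count of indexed literature references reporting cirrhosis confirmed by histopathology.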
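For Hepatotoxicity (cytolytic) in this document: human cytolytic liver injury, shown by histopathology or by a ratio above 5 of peak ALT or AST elevation to alkaline phosphatase elevation, value counts indexed references.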
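For Hepatotoxicity (granulomatous hepatitis) in this document: value is a count of indexed literature references reporting granulomatous liver disease confirmed by histopathology.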
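For Hepatotoxicity (malignant tumour) in this document: malignant tumour confirmed by histopathology, value gives the count of indexed literature references reporting it.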
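For Hepatotoxicity (severe hepatitis) in this document: human clinical data: severe hepatitis, meaning potentially life-threatening liver failure or clinically observed cases, the value counts how many indexed literature references report it.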
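For Hepatotoxicity (steatosis) in this document: steatosis confirmed by histopathology, value is the count of indexed references.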

As for `CCOC(=O)OC(C)OC(=O)[C@@H]1N2C(=O)[C@@H](NC(=O)[C@H](N)c3ccccc3)[C@H]2SC1(C)C` (stereo partly drawn) [BACAMPICILLIN], the “Hepatotoxicity (moderate)” value in series [1] is 0%; in series [3], 2. For the same compound, the “Hepatotoxicity (acute)” value in [2] is recorded as 0%; in series [4], 0. Moreover, the “Hepatotoxicity (cytolytic)” value in series [5] is on record as 0. Moreover, the “Hepatotoxicity (choleostasis)” value in series [6] came to 0. In addition, the “Hepatotoxicity (severe hepatitis)” value in series [7] was determined as 0. For the same compound, the “Hepatotoxicity (chronic liver disease)” value in [8] came to 0. For the same compound, in [9], the “Hepatotoxicity (cirrhosis)” value amounted to 0. The “Hepatotoxicity (granulomatous hepatitis)” value in series [10] worked out at 0. Further, the “Hepatotoxicity (association with vascular disease)” value in series [11] turned out to be 0. In series [12], the “Hepatotoxicity (steatosis)” value worked out at 0. Besides, in [13], the “Hepatotoxicity (malignant tumour)” value was 0. Besides, in series [14], the “Hepatotoxicity (benign tumour)” value was found to be 0.

As for `COc1cccc(C2(O)CCCCC2CN(C)C)c1` (stereo not drawn) [TRAMADOL], the “Hepatotoxicity (moderate)” value in series [1] turned out to be 0%; in series [3], 1. Further, the entries for the “Hepatotoxicity (acute)” value in series [2] and in series [4] were 0% and 0, respectively. For the same compound, the “Hepatotoxicity (cytolytic)” value in series [5] is 0. The “Hepatotoxicity (choleostasis)” value in [6] was found to be 0. For the same compound, in series [7], the “Hepatotoxicity (severe hepatitis)” value came to 0. Also, the “Hepatotoxicity (chronic liver disease)” value in series [8] amounted to 0. Also, the “Hepatotoxicity (cirrhosis)” value in series [9] turned out to be 0. Moreover, the “Hepatotoxicity (granulomatous hepatitis)” value in [10] was found to be 0. The “Hepatotoxicity (association with vascular disease)” value in [11] came to 0. Further, the “Hepatotoxicity (steatosis)” value in series [12] worked out at 0. Further, the “Hepatotoxicity (malignant tumour)” value in [13] is 0. In addition, the “Hepatotoxicity (benign tumour)” value in series [14] amounted to 0.

Turning to `CN(C)CCOC1=Cc2ccccc2Sc2ccc(Cl)cc21` [ZOTEPINE], the “Hepatotoxicity (moderate)” value in series [1] is recorded as 34.8%; in series [3], 8. The “Hepatotoxicity (acute)” value stood at 0% in [2] and 0 in series [4]. Also, the “Hepatotoxicity (cytolytic)” value in series [5] is on record as 0. Further, in series [6], the “Hepatotoxicity (choleostasis)” value was 0. Also, in series [7], the “Hepatotoxicity (severe hepatitis)” value is listed as 0. Further, in [8], the “Hepatotoxicity (chronic liver disease)” value is listed as 0. For the same compound, the “Hepatotoxicity (cirrhosis)” value in series [9] amounted to 0. Besides, in [10], the “Hepatotoxicity (granulomatous hepatitis)” value is 0. Moreover, in series [11], the “Hepatotoxicity (association with vascular disease)” value was 0. In addition, in series [12], the “Hepatotoxicity (steatosis)” value was determined as 0. Also, the “Hepatotoxicity (malignant tumour)” value in series [13] came to 0. Further, the “Hepatotoxicity (benign tumour)” value in series [14] amounted to 0.

As for `Cc1cc(C(=O)NCCc2ccc(S(=O)(=O)NC(=O)NN3CCCCCC3)cc2)no1` [GLISOXEPIDE], the “Hepatotoxicity (moderate)” value in series [1] was determined as 0%; in series [3], 1. The “Hepatotoxicity (acute)” value in [2] was determined as 0%; in series [4], 0. The “Hepatotoxicity (cytolytic)” value in series [5] is recorded as 0. For the same compound, the “Hepatotoxicity (choleostasis)” value in [6] is recorded as 0. For the same compound, the “Hepatotoxicity (severe hepatitis)” value in [7] is 0. Moreover, the “Hepatotoxicity (chronic liver disease)” value in [8] is given as 0. Also, in series [9], the “Hepatotoxicity (cirrhosis)” value was 0. In addition, in [10], the “Hepatotoxicity (granulomatous hepatitis)” value was determined as 0. Further, in series [11], the “Hepatotoxicity (association with vascular disease)” value is reported as 0. The “Hepatotoxicity (steatosis)” value in series [12] was 0. For the same compound, the “Hepatotoxicity (malignant tumour)” value in series [13] is recorded as 0. Also, in [14], the “Hepatotoxicity (benign tumour)” value amounted to 0.

On to `CN(C)C(=O)CCCOC(=O)C(C)(C)Oc1ccc(Cl)cc1` [CLOFIBRIDE], for which the “Hepatotoxicity (moderate)” value amounted to 0% in series [1] and 1 in series [3]. In addition, the “Hepatotoxicity (acute)” value in series [2] came to 0%; in [4], 0. Also, the “Hepatotoxicity (cytolytic)” value in [5] stood at 0. The “Hepatotoxicity (choleostasis)” value in series [6] is on record as 0. Besides, the “Hepatotoxicity (severe hepatitis)” value in series [7] stood at 0. For the same compound, the “Hepatotoxicity (chronic liver disease)” value in [8] turned out to be 0. Besides, in [9], the “Hepatotoxicity (cirrhosis)” value stood at 0. The “Hepatotoxicity (granulomatous hepatitis)” value in [10] was found to be 0. Moreover, the “Hepatotoxicity (association with vascular disease)” value in series [11] turned out to be 0. Besides, in series [12], the “Hepatotoxicity (steatosis)” value is reported as 0. In series [13], the “Hepatotoxicity (malignant tumour)” value was determined as 0. Besides, in [14], the “Hepatotoxicity (benign tumour)” value was 0.

Regarding `CN(C)CCC=C1c2ccccc2C=Cc2ccccc21` [CYCLOBENZAPRINE], the “Hepatotoxicity (moderate)” value in series [1] (Liver) was found to be 0%; in series [3], 1. Further, the “Hepatotoxicity (acute)” value came out at 0% in series [2] (Liver) and 1 in series [4]. For the same compound, the “Hepatotoxicity (cytolytic)” value in series [5] (Liver) stood at 0. In addition, the “Hepatotoxicity (choleostasis)” value in series [6] (Liver) is listed as 0. Moreover, the “Hepatotoxicity (severe hepatitis)” value in series [7] (Liver) stood at 0. Further, the “Hepatotoxicity (chronic liver disease)” value in [8] amounted to 0. Besides, in series [9], the “Hepatotoxicity (cirrhosis)” value was 0. The “Hepatotoxicity (granulomatous hepatitis)” value in [10] (Liver) is 0. The “Hepatotoxicity (association with vascular disease)” value in [11] is 0. For the same compound, the “Hepatotoxicity (steatosis)” value in series [12] amounted to 0. The “Hepatotoxicity (malignant tumour)” value in [13] came to 0. Moreover, in series [14], the “Hepatotoxicity (benign tumour)” value is on record as 0.

For the compound `Nc1ncc2ncn(COCCO)c2n1` [DESCICLOVIR], the figures for the “Hepatotoxicity (moderate)” value in [1] and in [3] were 15.4% and 1, respectively. Also, the “Hepatotoxicity (acute)” value in series [2] was 0%; in series [4], 0. For the same compound, in series [5], the “Hepatotoxicity (cytolytic)” value turned out to be 0. Also, the “Hepatotoxicity (choleostasis)” value in series [6] was 0. Further, the “Hepatotoxicity (severe hepatitis)” value in series [7] came out at 0. Moreover, the “Hepatotoxicity (chronic liver disease)” value in series [8] is 0. The “Hepatotoxicity (cirrhosis)” value in series [9] was found to be 0. For the same compound, the “Hepatotoxicity (granulomatous hepatitis)” value in series [10] was 0. Moreover, the “Hepatotoxicity (association with vascular disease)” value in series [11] amounted to 0. The “Hepatotoxicity (steatosis)” value in series [12] is recorded as 0. In series [13], the “Hepatotoxicity (malignant tumour)” value is listed as 0. In addition, the “Hepatotoxicity (benign tumour)” value in [14] was found to be 0.

On to `Cc1ccc(Cl)c(Nc2ccccc2C(=O)O)c1Cl` [MECLOFENAMIC ACID], for which the “Hepatotoxicity (moderate)” value in [1] was 0%; in series [3], 2. Also, the “Hepatotoxicity (acute)” value worked out at 0% in series [2] and 0 in [4]. For the same compound, the “Hepatotoxicity (cytolytic)” value in series [5] stood at 0. In [6], the “Hepatotoxicity (choleostasis)” value came to 0. In series [7], the “Hepatotoxicity (severe hepatitis)” value amounted to 0. In addition, the “Hepatotoxicity (chronic liver disease)” value in [8] is 0. The “Hepatotoxicity (cirrhosis)” value in series [9] came to 0. Also, in [10], the “Hepatotoxicity (granulomatous hepatitis)” value was 0. The “Hepatotoxicity (association with vascular disease)” value in series [11] was determined as 0. In addition, the “Hepatotoxicity (steatosis)” value in series [12] came to 0. In addition, in series [13], the “Hepatotoxicity (malignant tumour)” value is 0. The “Hepatotoxicity (benign tumour)” value in series [14] came out at 0.

For the compound `CN1CCCN(C(c2ccccc2)c2ccc(Cl)cc2)CC1` (stereo not drawn) [HOMOCHLORCYCLIZINE], the entries for the “Hepatotoxicity (moderate)” value in [1] and in series [3] were 0% and 0, respectively. In addition, the figures for the “Hepatotoxicity (acute)” value in series [2] and in series [4] were 0% and 1, respectively. In series [5], the “Hepatotoxicity (cytolytic)” value was 1. Moreover, the “Hepatotoxicity (choleostasis)” value in [6] is recorded as 1. In series [7], the “Hepatotoxicity (severe hepatitis)” value was found to be 0. For the same compound, in [8], the “Hepatotoxicity (chronic liver disease)” value amounted to 0. For the same compound, in series [9], the “Hepatotoxicity (cirrhosis)” value is 0. Besides, in series [10], the “Hepatotoxicity (granulomatous hepatitis)” value turned out to be 0. Besides, the “Hepatotoxicity (association with vascular disease)” value in series [11] is on record as 0. In [12], the “Hepatotoxicity (steatosis)” value worked out at 0. Besides, the “Hepatotoxicity (malignant tumour)” value in [13] was 0. Besides, the “Hepatotoxicity (benign tumour)” value in [14] is on record as 0.

In the case of `CO/N=C(\C(=O)N[C@@H]1C(=O)N2C(C(=O)[O-])=C(C[N+]34CCC(C(N)=O)(CC3)CC4)CS[C@H]12)c1nsc(N)n1` [CEFCLIDIN], the “Hepatotoxicity (moderate)” value in [1] amounted to 40%; in series [3], 49. Further, the “Hepatotoxicity (acute)” value in [2] is 0%; in series [4], 0. In series [5], the “Hepatotoxicity (cytolytic)” value is 0. Further, the “Hepatotoxicity (choleostasis)” value in series [6] was 0. The “Hepatotoxicity (severe hepatitis)” value in series [7] was 1. Further, in [8], the “Hepatotoxicity (chronic liver disease)” value is reported as 0. The “Hepatotoxicity (cirrhosis)” value in series [9] is reported as 0. Moreover, in series [10], the “Hepatotoxicity (granulomatous hepatitis)” value amounted to 0. Besides, the “Hepatotoxicity (association with vascular disease)” value in [11] was 0. In addition, the “Hepatotoxicity (steatosis)” value in series [12] was 0. Moreover, the “Hepatotoxicity (malignant tumour)” value in series [13] amounted to 0. The “Hepatotoxicity (benign tumour)” value in series [14] worked out at 0.

For `C[C@H]1C[C@H]2[C@@H]3CCC4=CC(=O)C=C[C@]4(C)[C@@]3(F)[C@@H](O)C[C@]2(C)[C@@]1(O)C(=O)CO` [BETAMETHASONE], the “Hepatotoxicity (moderate)” value stood at 0% in series [1] and 0 in series [3]. For the same compound, the “Hepatotoxicity (acute)” value came to 0% in [2] and 0 in series [4]. The “Hepatotoxicity (cytolytic)” value in series [5] is recorded as 0. In addition, the “Hepatotoxicity (choleostasis)” value in series [6] is listed as 0. Besides, the “Hepatotoxicity (severe hepatitis)” value in series [7] worked out at 0. Moreover, the “Hepatotoxicity (chronic liver disease)” value in series [8] was found to be 0. For the same compound, in series [9], the “Hepatotoxicity (cirrhosis)” value came to 0. The “Hepatotoxicity (granulomatous hepatitis)” value in series [10] was 0. The “Hepatotoxicity (association with vascular disease)” value in series [11] was 0. The “Hepatotoxicity (steatosis)” value in series [12] was 1. In [13], the “Hepatotoxicity (malignant tumour)” value was determined as 0. In [14], the “Hepatotoxicity (benign tumour)” value amounted to 0.

Consider `O=C(NCCN1CCC(n2c(=O)[nH]c3cc(Cl)ccc32)CC1)c1ccc(F)cc1` [HALOPEMIDE], for which the “Hepatotoxicity (moderate)” value in [1] stood at 27%; in series [3], 1. The figures for the “Hepatotoxicity (acute)” value in [2] and in [4] were 0% and 0, respectively. Besides, the “Hepatotoxicity (cytolytic)” value in series [5] was 0. For the same compound, the “Hepatotoxicity (choleostasis)” value in series [6] was determined as 0. Also, the “Hepatotoxicity (severe hepatitis)” value in series [7] is on record as 0. For the same compound, in series [8], the “Hepatotoxicity (chronic liver disease)” value was found to be 0. Besides, in series [9], the “Hepatotoxicity (cirrhosis)” value was determined as 0. For the same compound, the “Hepatotoxicity (granulomatous hepatitis)” value in series [10] is given as 0. The “Hepatotoxicity (association with vascular disease)” value in series [11] is given as 0. In addition, in series [12], the “Hepatotoxicity (steatosis)” value turned out to be 0. Also, the “Hepatotoxicity (malignant tumour)” value in [13] was 0. In series [14], the “Hepatotoxicity (benign tumour)” value worked out at 0.

(Values after ChEMBL document CHEMBL3137667, “[Drug-induced liver injury; fourteenth updated edition of the bibliographic database of liver injuries and related drugs]” (Gastroenterol Clin Biol, 2004).)
